Measurements from patent US20230129258A1, “HETEROTANDEM BICYCLIC PEPTIDE COMPLEXES” (BicycleTx Limited, priority 2019, published 2023).
“Also recorded” adds a separate entry of the source. Starred links: 1 amine or outer side, 2 acyl side, 3 side chain; linkers in the order of their positions; H or OH if unused. Positions of bridges follow the written chain, without caps; N, C: chain ends. Non-standard residues stand in square brackets, D forms with d. Chains are numbered I, II in the order given. X1 = O=C(CCOCCOCCOCCN(CCOCCOCCOCCn1cc(CCC(=O)[*:2])nn1)CCOCCOCCOCCn1cc(CCC(=O)[*:3])nn1)[*:1]; TATA = O=C(CC[*:1])N1CN(C(=O)CC[*:2])CN(C(=O)CC[*:3])C1; d1Nal = N[C@H](Cc1cccc2ccccc12)C(=O)O; Hyp = O=C(O)[C@@H]1C[C@@H](O)CN1; hArg = N=C(N)NCCCC[C@H](N)C(=O)O; tBuAla = CC(C)(C)C[C@H](N)C(=O)O; Nle = CCCC[C@H](N)C(=O)O

Tests used:
[1] = Pharmacokinetics in cynomolgus monkey; assay type: in vivo; conditions: plasma
Procedure: Serial bleeding (about 1.2 ml blood/time point) was performed from a peripheral vessel from restrained, non-sedated animals at each time point into a commercially available tube containing Potassium (K2) EDTA*2H2O (0.85-1.15 mg) on wet ice and processed for plasma. Samples were centrifuged (3,000×g for 10 minutes at 2 to 8° C.) immediately after collection. 0.1 mL plasma was transferred into labelled polypropylene micro-centrifuge tubes. 5-fold of the precipitant including internal standard 100 ng/mL Labetalol & 100 ng/mL dexamethasone & 100 ng/mL tolbutamide & 100 ng/mL Verapamil & 100 ng/mL Glyburide & 100 ng/mL Celecoxib in MeOH was immediately added into the plasma, mixed well and centrifuged at 12,000 rpm for 10 minutes at 2 to 8° C. Samples of supernatant were transferred into the pre-labeled polypropylene microcentrifuge tubes, and frozen over dry ice. The samples were stored at −60° C. or below until LC-MS/MS analysis. An aliquot of 40 μL calibration standard, quality control, single blank and double blank samples were added to the 1.5 mL tube. Each sample (except the double blank) was quenched with 200 μL IS1 respectively (double blank sample was quenched with 200 μL MeOH with 0.5% tritonX-100), and then the mixture was vortex-mixed well (at least 15 s) with vortexer and centrifuged for 15 min at 12000 g, 4° C. A 10 μL supernatant was injected for LC-MS/MS analysis using an Orbitrap Q Exactive in positive ion mode to determine the concentrations of analyte. Plasma concentration versus time data were analyzed by non-compartmental approaches using the Phoenix WinNonlin 6.3 software program. C0, CI, Vdss, T½, AUC(0-last), AUC(0-inf), MRT(0-last), MRT(0-inf) and graphs of plasma concentration versus time profile were reported.

[2] = Pharmacokinetics in CD1 mice; assay type: in vivo, CD-1 mice
Procedure: Serial bleeding (about 80 μL blood/time point) was performed via submandibular or saphenous vein at each time point. All blood samples were immediately transferred into prechilled microcentrifuge tubes containing 2 μL K2-EDTA (0.5M) as anti-coagulant and placed on wet ice. Blood samples were immediately processed for plasma by centrifugation at approximately 4° C., 3000 g. The precipitant including internal standard was immediately added into the plasma, mixed well and centrifuged at 12,000 rpm, 4° C. for 10 minutes. The supernatant was transferred into pre-labeled polypropylene microcentrifuge tubes, and then quick-frozen over dry ice. The samples were stored at […] or below as needed until analysis. 7.5 μL of the supernatant samples were directly injected for LC-MS/MS analysis using an Orbitrap Q Exactive in positive ion mode to determine the concentrations of analyte. Plasma concentration versus time data were analyzed by non-compartmental approaches using the Phoenix WinNonlin 6.3 software program. C0, CI, Vdss, T½, AUC(0-last), AUC(0-inf), MRT(0-last), MRT(0-inf) and graphs of plasma concentration versus time profile were reported.

CD137 = CD137 (Homo sapiens, UniProt Q07011); experiment: SPR (Biacore) binding to immobilized human CD137; parameters: purchased R&D systems; conditions: for off rate (koff) from immobilized CD137: avidity from two CD137 binding bicycles; for affinity to immobilized CD137 (human), in words: reported KD may be an overestimation
Procedure: Biacore experiments were performed to determine ka (M^−1s^−1), kd (s^−1), KD (nM) values of heterotandem peptides binding to human CD137 protein. […] The protein was desalted to remove uncoupled biotin using spin columns into PBS.
For analysis of peptide binding, a Biacore T200 or a Biacore 3000 instrument was used with a XanTec CMD500D chip. Streptavidin was immobilized on the chip using standard amine-coupling chemistry at 25° C. with HBS-N (10 mM HEPES, 0.15 M NaCl, pH 7.4) as the running buffer. Briefly, the carboxymethyl dextran surface was activated with a 7 min injection of a 1:1 ratio of 0.4 M 1-ethyl-3-(3-dimethylaminopropyl) carbodiimide hydrochloride (EDC)/0.1 M N-hydroxy succinimide (NHS) at a flow rate of 10 μl/min. For capture of streptavidin, the protein was diluted to 0.2 mg/ml in 10 mM sodium acetate (pH 4.5) and captured by injecting 120 μl of onto the activated chip surface. Residual activated groups were blocked with a 7 min injection of 1 M ethanolamine (pH 8.5) and biotinylated CD137 captured to a level of 270-1500 RU. Buffer was changed to PBS/0.05% Tween 20 and a dilution series of the peptides was prepared in this buffer with a final DMSO concentration of 0.5%. The top peptide concentration was 500 nM with 6 further 2-fold or 3-fold dilutions. The SPR analysis was run at 25° C. at a flow rate of 90 μl/min with 60 seconds association and 900 seconds dissociation. After each cycle a regeneration step (10 μl of 10 mM glycine pH 2) was employed. Data were corrected for DMSO excluded volume effects as needed. All data were double-referenced for blank injections and reference surface using standard processing procedures and data processing and kinetic fitting were performed using Scrubber software, version 2.0c (BioLogic Software). Data were fitted using simple 1:1 binding model allowing for mass transport effects where appropriate.

Sequence of CD137 (Q07011 24-255): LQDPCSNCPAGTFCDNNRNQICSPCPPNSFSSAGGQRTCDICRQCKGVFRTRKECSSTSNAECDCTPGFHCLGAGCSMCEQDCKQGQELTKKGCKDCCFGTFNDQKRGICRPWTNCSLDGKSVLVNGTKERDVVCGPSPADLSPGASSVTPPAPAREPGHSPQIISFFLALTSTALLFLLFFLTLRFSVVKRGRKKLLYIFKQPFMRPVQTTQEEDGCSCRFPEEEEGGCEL

CCCC[C@@H]1NC(=O)[C@H](Cc2ccc(O)cc2)NC(=O)[C@@H]2CCCN2C(=O)[C@H](CC(=O)O)NC(=O)[C@H](C)NC(=O)[C@H](Cc2ccccc2)NC(=O)[C@@H]2CSCCC(=O)N3CN(CN(C3)C(=O)CCSC[C@@H](C(=O)N[C@@H](C)C(N)=O)NC1=O)C(=O)CCSC[C@H](NC(C)=O)C(=O)N[C@@H](CC(C)(C)C)C(=O)N1CCC[C@H]1C(=O)N[C@@H](CCC(=O)O)C(=O)N[C@H](CCCCNC(=O)CCc1cn(CCOCCOCCOCCN(CCOCCOCCOCCC(=O)N[C@H]3CSCCC(=O)N4CN5CN(C4)C(=O)CCSC[C@H](NC(=O)[C@@H](CC(=O)O)NC(=O)[C@H](Cc4cccc6ccccc46)NC(=O)[C@@H]4CCCN4C3=O)C(=O)N[C@@H](CCSC)C(=O)N[C@@H](CCCCNC(=N)N)C(=O)N[C@@H](CC(=O)O)C(=O)N[C@@H](Cc3c[nH]c4ccccc34)C(=O)N[C@@H](CO)C(=O)N[C@@H]([C@@H](C)O)C(=O)N3CCC[C@H]3C(=O)N3C[C@H](O)C[C@H]3C(=O)N[C@@H](Cc3c[nH]c4ccccc34)C(=O)N[C@H](C(N)=O)CSCCC5=O)CCOCCOCCOCCn3cc(CCC(=O)NCCCC[C@H]4NC(=O)[C@H](CCC(=O)O)NC(=O)[C@@H]5CCCN5C(=O)[C@H](CC(C)(C)C)NC(=O)[C@@H](NC(C)=O)CSCCC(=O)N5CN6CN(C5)C(=O)CCSC[C@H](NC(=O)[C@H](Cc5ccc(O)cc5)NC(=O)[C@@H]5CCCN5C4=O)C(=O)N[C@@H](Cc4ccccc4)C(=O)N[C@@H](C)C(=O)N[C@@H](CC(=O)O)C(=O)N4CCC[C@H]4C(=O)N[C@@H](Cc4ccc(O)cc4)C(=O)N[C@@H](CCCC)C(=O)N[C@H](C(=O)N[C@@H](C)C(N)=O)CSCCC6=O)nn3)nn1)C(=O)N1CCC[C@H]1C(=O)N[C@@H](Cc1ccc(O)cc1)C(=O)N2 [BCY11863]
Vd ([1]; 0.93 mg/kg IV infusion (30 min), read-out: Vdss): 0.62 L/kg | clearance ([1]; 0.97 mg/kg IV infusion (15 min), read-out: Clp): 0.288 L/h/kg | half-life ([1]; 0.97 mg/kg IV infusion (15 min), read-out: T1/2 (converted)): 4.5 h | Vd ([1]; 0.97 mg/kg IV infusion (15 min), read-out: Vdss): 0.91 L/kg | Vd ([1]; 1 mg/kg IV infusion, n=2, read-out: volume of distribution at steady state (Vdss)): 0.62 L/kg | clearance ([1]; 9.4 mg/kg IV infusion (15 min), read-out: Clp): 0.234 L/h/kg | half-life ([1]; 9.4 mg/kg IV infusion (15 min), read-out: T1/2 (converted)): 8.9 h | Vd ([1]; 9.4 mg/kg IV infusion (15 min), read-out: Vdss): 1.1 L/kg | bioavailability from IP dosing ([2]; IP dosing): high | clearance (in words) ([2]; IV study): low clearance molecule | volume of distribution (in words) ([2]; IV study): volume of distribution larger than plasma volume | half-life ([2]; male, CD-1, mouse, plasma, 15 mg/kg, mice, after IP injection, read-out: circulating plasma half-life (converted)): 2.5 h | clearance ([2]; male, mouse, plasma, CD-1 mice, 0.96 mg/kg IV Bolus, read-out: Clp): 1.26 L/h/kg | half-life ([2]; male, mouse, plasma, CD-1 mice, 0.96 mg/kg IV Bolus, read-out: T½ (converted)): 1.7 h | Vd ([2]; male, mouse, plasma, CD-1 mice, 0.96 mg/kg IV Bolus, read-out: Vdss): 2.9 L/kg | clearance ([2]; male, mouse, plasma, CD-1 mice, 5.6 mg/kg IV Bolus, read-out: Clp): 0.582 L/h/kg | half-life ([2]; male, mouse, plasma, CD-1 mice, 5.6 mg/kg IV Bolus, read-out: T½ (converted)): 2.6 h | Vd ([2]; male, mouse, plasma, CD-1 mice, 5.6 mg/kg IV Bolus, read-out: Vdss): 1.6 L/kg | clearance ([2]; male, mouse, plasma, CD-1 mice, 12 mg/kg IV Bolus, read-out: Clp): 1.02 L/h/kg | half-life ([2]; male, mouse, plasma, CD-1 mice, 12 mg/kg IV Bolus, read-out: T½ (converted)): 2.6 h | Vd ([2]; male, mouse, plasma, CD-1 mice, 12 mg/kg IV Bolus, read-out: Vdss): 2.5 L/kg | bioavailability ([2]; male, mouse, plasma, CD-1 mice, 15.5 mg/kg IP): 100% | half-life ([2]; male, mouse, plasma, CD-1 mice, 15.5 mg/kg IP, read-out: T½ (converted)): 2.5 h | half-life ([2]; male, mouse, plasma, CD-1 mice, 32 mg/kg IV Bolus, read-out: T½ (converted)): 2.4 h | Vd ([2]; male, mouse, plasma, CD-1 mice, 32 mg/kg IV Bolus, read-out: Vdss): 2.1 L/kg | off rate (koff) from immobilized CD137 (CD137): extremely slow; also recorded: very slow | affinity to immobilized CD137 (human), in words (CD137): high affinity

I: A[hArg]DC[Hyp]LVNPLCLEP[d1Nal]WTC-NH2 / II: Ac-C[tBuAla]PE[dK]PYCFADPY[Nle]CA-NH2 / III: Ac-C[tBuAla]PE[dK]PYCFADPY[Nle]CA-NH2 (linker I:4-I:11-I:18, II:1-II:8-II:15, III:1-III:8-III:15 via TATA; linker I:N-II:5-III:5 via X1) [BCY13272]
clearance ([1]; 9.2 mg/kg IV infusion (15 min), read-out: clearance): 0.246 L/h/kg | Vd ([1]; 9.2 mg/kg IV infusion (15 min), read-out: volume of distribution at steady state (Vdss)): 0.82 L/kg | half-life ([1]; IV infusion (15 min), 9.2 mg/kg, read-out: T1/2 (converted)): 8.9 h | half-life ([1]; IV infusion (15 min), dose 9.2 mg/kg, 8.9 mg/kg, read-out: terminal half life (converted)): 8.9 h | clearance ([2]; male, CD-1, mouse, plasma, 5.5 mg/kg IV, n=3, read-out: Clearance): 0.45 L/h/kg | half-life ([2]; male, CD-1, mouse, plasma, 5.5 mg/kg IV, n=3, read-out: terminal plasma half life (converted)): 2.9 h | Vd ([2]; male, CD-1, mouse, plasma, 5.5 mg/kg IV, n=3, read-out: volume of distribution (Vdss)): 1.1 L/kg | off rate (koff) from immobilized CD137 (CD137): very slow | affinity to immobilized CD137 (human), in words (CD137): high affinity
